Test results published in PubChem BioAssay (NCI).
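Briefly, cells in 96-well plates were exposed to five compound concentrations for 48 h, and endpoints were estimated by linear interpolation. GI50: concentration for 50% inhibition of growth. TGI is the concentration that stops growth completely.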

tested on: SK-MEL-2 melanoma; assay: DTP human tumour cell line panel, 48 h

Compound | GI50 | TGI
O=[N+]([O-])c1cccc2ccc(N/N=C/c3ccccc3O)nc12 | > 100 µM | > 100 µM
C=CCc1ccc(O)c(-c2ccc(O)c(CC=C)c2)c1 | 14.5 µM | 33 µM
Cc1nc2ccc(F)cc2c2c1CCN2c1ccc(Cl)cc1 |  | 41.4 µM

tested on: U251 CNS; assay: DTP human tumour cell line panel, 48 h

Compound | TGI | GI50
COc1cc2c(cc1OC)C1C[C@]3(CCN1CC2)C(=O)N(c1ccccc1)C(=O)N3C(C)=O (some centres undefined) | > 200 µM | 
CC(=O)NC1=N/C(=C\c2ccc(Cl)cc2)C(=O)N1/C=C1\C(=O)Oc2ccccc2C1=O | > 100 µM | 
O=[N+]([O-])c1cccc2ccc(N/N=C/c3ccccc3O)nc12 | > 100 µM | > 59.7 µM
C=CCc1ccc(O)c(-c2ccc(O)c(CC=C)c2)c1 | 31.8 µM | 14.3 µM
Cc1nc2ccc(F)cc2c2c1CCN2c1ccc(Cl)cc1 | 71.8 µM | 

tested on: NCI/ADR-RES ovarian; assay: DTP human tumour cell line panel, 48 h

Compound | TGI | GI50
COc1cc2c(cc1OC)C1C[C@]3(CCN1CC2)C(=O)N(c1ccccc1)C(=O)N3C(C)=O (some centres undefined) | > 200 µM | 
CC1=C(CO)C2=C(C)C3(CC3)[C@@](C)(O)C(=O)C2=C1 | 0.698 µM | 
CC(=O)NC1=N/C(=C\c2ccc(Cl)cc2)C(=O)N1/C=C1\C(=O)Oc2ccccc2C1=O | > 100 µM | 
O=[N+]([O-])c1cccc2ccc(N/N=C/c3ccccc3O)nc12 | > 100 µM | > 100 µM
C=CCc1ccc(O)c(-c2ccc(O)c(CC=C)c2)c1 | 33.9 µM | 15.3 µM
Cc1nc2ccc(F)cc2c2c1CCN2c1ccc(Cl)cc1 | 19.8 µM | 

tested on: ACHN renal; assay: DTP human tumour cell line panel, 48 h

Compound | TGI | GI50
COc1cc2c(cc1OC)C1C[C@]3(CCN1CC2)C(=O)N(c1ccccc1)C(=O)N3C(C)=O (some centres undefined) | > 200 µM | 
CC1=C(CO)C2=C(C)C3(CC3)[C@@](C)(O)C(=O)C2=C1 | 1.52 µM | 
CC(=O)NC1=N/C(=C\c2ccc(Cl)cc2)C(=O)N1/C=C1\C(=O)Oc2ccccc2C1=O | > 100 µM | 
O=[N+]([O-])c1cccc2ccc(N/N=C/c3ccccc3O)nc12 | > 100 µM | > 100 µM
C=CCc1ccc(O)c(-c2ccc(O)c(CC=C)c2)c1 | 30.6 µM | 15.8 µM
Cc1nc2ccc(F)cc2c2c1CCN2c1ccc(Cl)cc1 | 96.2 µM | 

tested on: EKVX NSCLC; assay: DTP human tumour cell line panel, 48 h

Compound | TGI | GI50
COc1cc2c(cc1OC)C1C[C@]3(CCN1CC2)C(=O)N(c1ccccc1)C(=O)N3C(C)=O (some centres undefined) | > 200 µM | 
CC1=C(CO)C2=C(C)C3(CC3)[C@@](C)(O)C(=O)C2=C1 | 0.535 µM | 
CC(=O)NC1=N/C(=C\c2ccc(Cl)cc2)C(=O)N1/C=C1\C(=O)Oc2ccccc2C1=O | > 100 µM | 
O=[N+]([O-])c1cccc2ccc(N/N=C/c3ccccc3O)nc12 | > 100 µM | > 100 µM
C=CCc1ccc(O)c(-c2ccc(O)c(CC=C)c2)c1 | 23.3 µM | 7.11 µM

tested on: SK-MEL-5 melanoma; assay: DTP human tumour cell line panel, 48 h

Compound | TGI | GI50
COc1cc2c(cc1OC)C1C[C@]3(CCN1CC2)C(=O)N(c1ccccc1)C(=O)N3C(C)=O (some centres undefined) | > 200 µM | 
CC1=C(CO)C2=C(C)C3(CC3)[C@@](C)(O)C(=O)C2=C1 | 0.374 µM | 
CC(=O)NC1=N/C(=C\c2ccc(Cl)cc2)C(=O)N1/C=C1\C(=O)Oc2ccccc2C1=O | > 100 µM | 
O=[N+]([O-])c1cccc2ccc(N/N=C/c3ccccc3O)nc12 | > 100 µM | > 100 µM
C=CCc1ccc(O)c(-c2ccc(O)c(CC=C)c2)c1 | 23.4 µM | 10.8 µM
Cc1nc2ccc(F)cc2c2c1CCN2c1ccc(Cl)cc1 | 12.3 µM | 

tested on: A549 NSCLC; assay: DTP human tumour cell line panel, 48 h

Compound | TGI | GI50
COc1cc2c(cc1OC)C1C[C@]3(CCN1CC2)C(=O)N(c1ccccc1)C(=O)N3C(C)=O (some centres undefined) | > 200 µM | 
CC1=C(CO)C2=C(C)C3(CC3)[C@@](C)(O)C(=O)C2=C1 | 1.64 µM | 
CC(=O)NC1=N/C(=C\c2ccc(Cl)cc2)C(=O)N1/C=C1\C(=O)Oc2ccccc2C1=O | > 100 µM | 
O=[N+]([O-])c1cccc2ccc(N/N=C/c3ccccc3O)nc12 | > 100 µM | > 100 µM
C=CCc1ccc(O)c(-c2ccc(O)c(CC=C)c2)c1 | > 100 µM | 30.7 µM
Cc1nc2ccc(F)cc2c2c1CCN2c1ccc(Cl)cc1 | > 100 µM | 

tested on: COLO 205 colon; assay: DTP human tumour cell line panel, 48 h

Compound | TGI
COc1cc2c(cc1OC)C1C[C@]3(CCN1CC2)C(=O)N(c1ccccc1)C(=O)N3C(C)=O (some centres undefined) | > 200 µM
CC1=C(CO)C2=C(C)C3(CC3)[C@@](C)(O)C(=O)C2=C1 | 0.298 µM
CC(=O)NC1=N/C(=C\c2ccc(Cl)cc2)C(=O)N1/C=C1\C(=O)Oc2ccccc2C1=O | > 100 µM
